From patent US11649510B2, “Screening method for materials that suppress characteristic body odor of elderly people” (Takasago International Corporation, priority 2017, dated 2023)
Blank lines part the entries; values can stand above or below the compound they belong to.

Assays:
[1] = biological target: T1, OR2C1 (Homo sapiens, UniProt O95371); test: suppressive effect on the response of OR2C1 to trans-2-nonenal, luciferase reporter gene assay; settings: mixed with trans-2-nonenal as analyte; FIGS. 9 and 10
T1 sequence (O95371 1-312): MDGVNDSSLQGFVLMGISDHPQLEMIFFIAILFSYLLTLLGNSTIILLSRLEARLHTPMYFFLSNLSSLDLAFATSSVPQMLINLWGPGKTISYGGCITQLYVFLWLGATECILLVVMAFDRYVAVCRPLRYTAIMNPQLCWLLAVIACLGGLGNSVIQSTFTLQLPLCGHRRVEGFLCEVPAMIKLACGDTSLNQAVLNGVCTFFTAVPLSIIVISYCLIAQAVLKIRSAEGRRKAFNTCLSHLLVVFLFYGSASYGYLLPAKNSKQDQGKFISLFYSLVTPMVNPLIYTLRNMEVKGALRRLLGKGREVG
Description: Human olfactory receptor genes were obtained by PCR cloning with Human Genomic DNA: Female (Promega) on the basis of their sequence information registered in GenBank. Into pME18S vectors, the N-terminal 20 amino acid residues of bovine rhodopsin were integrated, and subsequently the resulting human olfactory receptor genes were integrated respectively downstream thereof to obtain human olfactory receptor gene expression vectors. […]
After removal of the culture solutions, an odorous substance serving as an analyte, which had been prepared at a given concentration with CD293 (gibco) medium (supplemented with 20 μM L-glutamine), was added in 50 μL volumes to stimulate the cells for 3 hours, followed by luciferase activity measurement in accordance with the usage of a Dual-Luciferase Reporter Assay System (Promega). The response intensity of each olfactory receptor polypeptide was expressed as a fold increase value, which was determined by dividing the luciferase activity generated upon stimulation with the odorous substance by the luciferase activity generated in a test system not containing the odorous substance.

[2] = biological target: T1, OR2C1; test: luciferase reporter gene assay, response of OR2C1 to odorous substance; assay type: cell-based
[3] = biological target: T2, OR52N2 (Homo sapiens, UniProt Q8NGI0); test: luciferase reporter gene assay, response of OR52N2 to odorous substance; assay type: cell-based
T2 sequence (Q8NGI0 1-321): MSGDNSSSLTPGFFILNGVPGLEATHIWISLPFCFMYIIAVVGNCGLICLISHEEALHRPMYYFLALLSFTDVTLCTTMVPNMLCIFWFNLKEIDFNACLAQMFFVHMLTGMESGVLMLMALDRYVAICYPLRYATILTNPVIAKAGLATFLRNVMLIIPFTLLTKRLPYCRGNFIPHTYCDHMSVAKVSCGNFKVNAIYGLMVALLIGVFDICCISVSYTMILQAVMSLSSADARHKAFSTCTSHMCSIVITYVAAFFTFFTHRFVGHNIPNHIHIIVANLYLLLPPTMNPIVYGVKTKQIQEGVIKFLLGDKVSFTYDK

[4] = biological target: T3, OR4E2 (Homo sapiens, UniProt Q8NGC2, Q234R/V118M); test: luciferase reporter gene assay, response of OR4E2 to odorous substance; assay type: cell-based
T3 sequence (Q8NGC2 1-313 V118M/Q234R): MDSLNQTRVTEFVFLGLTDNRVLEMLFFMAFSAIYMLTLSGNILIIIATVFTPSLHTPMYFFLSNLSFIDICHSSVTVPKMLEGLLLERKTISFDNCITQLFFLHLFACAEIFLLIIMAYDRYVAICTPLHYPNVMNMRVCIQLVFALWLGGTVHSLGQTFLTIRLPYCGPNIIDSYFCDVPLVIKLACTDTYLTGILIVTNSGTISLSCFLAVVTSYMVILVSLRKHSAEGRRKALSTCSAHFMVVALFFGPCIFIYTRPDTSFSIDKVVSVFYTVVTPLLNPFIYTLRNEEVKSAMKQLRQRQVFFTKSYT

[5] = biological target: T4, OR1D2 (Homo sapiens, UniProt P34982); test: luciferase reporter gene assay, response of OR1D2 to odorous substance; assay type: cell-based
T4 sequence (P34982 1-312): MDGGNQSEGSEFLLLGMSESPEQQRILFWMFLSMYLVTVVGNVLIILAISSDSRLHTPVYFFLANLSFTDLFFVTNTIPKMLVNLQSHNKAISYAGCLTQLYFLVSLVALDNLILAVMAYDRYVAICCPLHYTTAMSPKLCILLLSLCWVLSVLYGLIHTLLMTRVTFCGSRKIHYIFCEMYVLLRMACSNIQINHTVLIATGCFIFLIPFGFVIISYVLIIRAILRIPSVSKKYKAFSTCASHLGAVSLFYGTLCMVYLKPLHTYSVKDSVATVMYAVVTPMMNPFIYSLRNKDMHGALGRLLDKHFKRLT

[6] = biological target: T5, OR5P3 (Homo sapiens, UniProt Q8WZ94); test: luciferase reporter gene assay, response of OR5P3 to odorous substance; assay type: cell-based
T5 sequence (Q8WZ94 1-311): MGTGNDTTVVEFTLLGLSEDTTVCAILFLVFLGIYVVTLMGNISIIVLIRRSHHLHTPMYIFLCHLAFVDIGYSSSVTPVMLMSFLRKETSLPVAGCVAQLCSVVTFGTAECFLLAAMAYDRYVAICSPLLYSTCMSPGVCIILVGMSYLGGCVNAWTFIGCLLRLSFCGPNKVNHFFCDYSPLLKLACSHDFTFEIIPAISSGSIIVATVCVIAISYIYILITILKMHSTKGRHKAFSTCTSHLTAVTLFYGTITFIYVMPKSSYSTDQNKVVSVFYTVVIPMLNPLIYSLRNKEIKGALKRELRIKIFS

[7] = biological target: T6, OR7G1 (Homo sapiens, UniProt Q8NGA0); test: luciferase reporter gene assay, response of OR7G1 to odorous substance; assay type: cell-based; settings: trans-2-octenal 50 μM, HEK293T cells expressing OR7G1
T6 sequence (Q8NGA0 1-311): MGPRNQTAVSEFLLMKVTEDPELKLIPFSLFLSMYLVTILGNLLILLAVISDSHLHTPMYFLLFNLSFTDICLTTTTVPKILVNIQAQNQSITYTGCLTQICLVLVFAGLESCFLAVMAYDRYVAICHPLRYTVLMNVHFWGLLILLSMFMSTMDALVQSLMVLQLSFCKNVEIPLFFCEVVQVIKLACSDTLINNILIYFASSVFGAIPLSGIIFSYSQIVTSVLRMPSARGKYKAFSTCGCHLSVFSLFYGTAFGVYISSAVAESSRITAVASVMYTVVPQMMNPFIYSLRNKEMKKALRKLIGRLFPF
Experimental: (§1) In the same manner as shown in Example 1, the cells engineered to express 402 types of human olfactory receptors were measured for receptor responses to trans-2-octenal (50 μM) by the luciferase reporter gene assay.

[8] = biological target: T7, OR9I1 (Homo sapiens, UniProt Q8NGQ6); test: luciferase reporter gene assay, response of OR9I1 to odorous substance; assay type: cell-based; settings: trans-2-octenal 50 μM, HEK293T cells expressing OR9I1
T7 sequence (Q8NGQ6 1-314): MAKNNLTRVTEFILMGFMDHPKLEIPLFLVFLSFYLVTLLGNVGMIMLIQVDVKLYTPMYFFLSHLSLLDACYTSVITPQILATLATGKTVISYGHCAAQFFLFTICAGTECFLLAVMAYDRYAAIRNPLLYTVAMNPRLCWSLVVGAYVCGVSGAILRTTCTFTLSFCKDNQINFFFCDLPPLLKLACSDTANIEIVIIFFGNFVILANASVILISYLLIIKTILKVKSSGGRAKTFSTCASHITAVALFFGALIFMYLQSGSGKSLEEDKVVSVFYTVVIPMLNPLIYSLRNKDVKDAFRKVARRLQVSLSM
Experimental: as §1

[9] = biological target: T8, OR51A7 (Homo sapiens, UniProt Q8NH64); test: luciferase reporter gene assay, response of OR51A7 to odorous substance; assay type: cell-based; settings: trans-2-octenal 50 μM, HEK293T cells expressing OR51A7
T8 sequence (Q8NH64 1-312): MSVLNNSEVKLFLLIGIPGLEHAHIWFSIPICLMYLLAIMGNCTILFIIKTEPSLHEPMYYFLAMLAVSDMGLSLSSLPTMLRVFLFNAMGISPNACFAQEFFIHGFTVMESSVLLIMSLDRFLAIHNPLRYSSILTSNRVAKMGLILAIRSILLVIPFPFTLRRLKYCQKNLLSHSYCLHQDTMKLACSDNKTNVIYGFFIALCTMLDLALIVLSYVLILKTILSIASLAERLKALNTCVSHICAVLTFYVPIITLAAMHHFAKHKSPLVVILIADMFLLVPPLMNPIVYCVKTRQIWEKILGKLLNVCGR
Experimental: as §1

SMILES: CC/C=C\CCO [cis-3-Hexenol]
suppressive effect on the response of OR2C1 to trans-2-nonenal (ratio of fold increase value, test without material set to 100) [1]: reducing the response of OR2C1 to trans-2-nonenal in a concentration-dependent manner

SMILES: CC1=CC(C)C(C=O)CC1 (stereo not drawn) [dimethyltetrahydrobenzaldehyde]
suppressive effect on the response of OR2C1 to trans-2-nonenal (ratio of fold increase value, test without material set to 100) [1]: reducing the response of OR2C1 to trans-2-nonenal in a concentration-dependent manner

fold increase value (receptor response) ([2]; trans-2-nonenal 60 μM, HEK293T cells expressing OR2C1, 3 hours): ≥ 2
fold increase value (receptor response) ([3]; trans-2-nonenal 60 μM, HEK293T cells expressing OR52N2, 3 hours): ≥ 2
fold increase value (receptor response) ([4]; trans-2-nonenal 60 μM, HEK293T cells expressing OR4E2, 3 hours): ≥ 2
fold increase value (receptor response) ([5]; trans-2-nonenal 60 μM, HEK293T cells expressing OR1D2, 3 hours): ≥ 2
fold increase value (receptor response) ([6]; trans-2-nonenal 60 μM, HEK293T cells expressing OR5P3, 3 hours): ≥ 2
SMILES: CCCCCC/C=C/C=O [trans-2-nonenal]
receptor response to different concentrations ([2]; different concentrations of trans-2-nonenal, FIG. 3, no response in mock test): respond to trans-2-nonenal in a concentration-dependent manner
receptor response to different concentrations ([3]; different concentrations of trans-2-nonenal, FIG. 7, no response in mock test): respond to trans-2-nonenal in a concentration-dependent manner
receptor response to different concentrations ([4]; different concentrations of trans-2-nonenal, FIG. 5, no response in mock test): respond to trans-2-nonenal in a concentration-dependent manner
receptor response to different concentrations ([5]; different concentrations of trans-2-nonenal, FIG. 2, no response in mock test): respond to trans-2-nonenal in a concentration-dependent manner
receptor response to different concentrations ([6]; different concentrations of trans-2-nonenal, FIG. 6, no response in mock test): respond to trans-2-nonenal in a concentration-dependent manner

fold increase value (receptor response) ([2]; trans-2-octenal 50 μM, HEK293T cells expressing OR2C1): ≥ 2
fold increase value (receptor response) [7]: ≥ 2
fold increase value (receptor response) ([4]; trans-2-octenal 50 μM, HEK293T cells expressing OR4E2): ≥ 2
fold increase value (receptor response) [8]: ≥ 2
fold increase value (receptor response) ([6]; trans-2-octenal 50 μM, HEK293T cells expressing OR5P3): ≥ 2
fold increase value (receptor response) [9]: ≥ 2
SMILES: CCCCC/C=C/C=O [trans-2-octenal]
